Entries after “also recorded” stand apart in the source; their conditions may differ.
Key:
Reticultiermes flavipes [1] = experiment: Toxicity tests of nepetalactone on treated filter paper in petri dishes; assay type: in vivo; conditions: filter paper treated with acetone solutions; strengths 5.35%, 0.535%, 0.0535%, 0.000004%
Procedure: Materials: Reticultiermes flavipes, from the family Rhinotermitidae, the most common subterranean termites, were collected for toxicity tests, nepetalactone was obtained by commercial purchase (Kooky Kat Catnip Co., B.C.). For repellency assays, a donated amount of nepetalactone was provided from Iowa State University, courtesy of Dr. Joel Coates. Bioassays: Acetone was used as solvent for nepetalactone and control (permethrin). Absorbent (Fisherbrand) coarse, filter paper was treated with nepetalactone and controls and placed in standard, sterile polystyrene 100×15 mm petri dishes. Reticultierme flavipes (20 per replication) were placed in petri dishes and location monitored at 6 ten minute intervals. Toxicity tests: Toxicity tests of nepetalactone were conducted to determine non-lethal percentage for repellency assays. Permethrin (0.1%) solutions served as known control. Four strengths of nepetalactone were measured: 5.35%, 0.535%, 0.0535%, and 0.000004%. Based on the evident mortality, 0.0535% nepetalactone was selected as the repellency test solution.

Reticultiermes flavipes [2] = experiment: Repellency tests, half-treated filter paper in petri dishes; assay type: in vivo; conditions: 0.0535% nepetalactone on half of the filter paper; six ten minute intervals
Procedure: Materials: Reticultiermes flavipes, from the family Rhinotermitidae, the most common subterranean termites, were collected for toxicity tests, nepetalactone was obtained by commercial purchase (Kooky Kat Catnip Co., B.C.). For repellency assays, a donated amount of nepetalactone was provided from Iowa State University, courtesy of Dr. Joel Coates. Bioassays: Acetone was used as solvent for nepetalactone and control (permethrin). Absorbent (Fisherbrand) coarse, filter paper was treated with nepetalactone and controls and placed in standard, sterile polystyrene 100×15 mm petri dishes. Reticultierme flavipes (20 per replication) were placed in petri dishes and location monitored at 6 ten minute intervals. Repellency tests: Eight trials each of 0.0535% nepetalactone, 0.1% permethrin, blank, and pure acetone solvent were ran to test repellency. Filter papers were cut in half with solvent on one half and treated side on the opposite half. […] Termites were measured on treated and untreated sides at six consecutive ten minute intervals. Percent repellency was calculated as follows: (# live termites−# live termites treated)/total #termites. Standard mean of the Error (SEM): SEM=(variance)^1/2[…].

## CC1=COC(=O)C2C(C)CCC12 (centres unmarked) [nepetalactone, 5,6,7,7a-tetrahydro-4,7-dimethyl cyclopenta[c]pyran-1-(4aH)-one]
Reticultiermes flavipes [1]
  toxic effect (mortality) to termites: lethal to termites; also recorded: toxic effects
Reticultiermes flavipes [2]
  repellant effect on termites: dramatic repellant effect; also recorded: clear repellant

From patent US6841570B2, “Materials and methods for controlling wood-boring insects” (priority 2002, dated 2005)
